Source: PubChem BioAssay (NCI)
Several values for one entry are separate records, joined by “and”; a condition that tells them apart may be missing. Equal entries are not always repeated.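 All cell lines were grown in 96-well plates and treated with compound for 48 hours. GI50: concentration for 50% inhibition of growth. TGI denotes the concentration required for complete inhibition of growth.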

How the values were obtained:
Assay in all cases: NCI tumour cell line growth inhibition, 48 h; in the data active = GI50 below about 0.43 µM; inactive = the rest
[1] = tested on: K-562 leukemia
[2] = tested on: COLO 205 colon
[3] = tested on: MOLT-4 leukemia
[4] = tested on: MDA-MB-231 breast
[5] = tested on: BT-549 breast
[6] = tested on: U251 CNS
[7] = tested on: RPMI-8226 leukemia
[8] = tested on: HCT-15 colon
[9] = tested on: SR leukemia
[10] = tested on: NCI-H226 lung
[11] = tested on: SF-268 CNS
[12] = tested on: A549 NSCLC
[13] = tested on: SK-MEL-2 melanoma
[14] = tested on: OVCAR-5 ovarian
[15] = tested on: OVCAR-8 ovarian

Cc1cc(NS(=O)(=O)c2ccc(NC(=O)c3cccc4c(NNc5ccc(S(N)(=O)=O)cc5)c5ccccc5nc34)cc2)no1
87.9 µM: TGI [3]
61 µM: TGI [13]
> 100 µM: TGI [1] | TGI [2] | TGI [4] | TGI [5] | TGI [7] | TGI [8] | TGI [11] | TGI [12] | TGI [14] | TGI [15]
93.2 µM: TGI [9]
63.6 µM: TGI [6]
91.7 µM: TGI [10]

CNC(=O)C(NC(=O)[C@H](CC(C)C)NC(=O)[C@@H](S)CCN1C(=O)N(C)C(C)(C)C1=O)C(C)(C)C (stereo partly specified)
> 100 µM: TGI [1] | TGI [3] | TGI [5] | TGI [7] | TGI [8] | TGI [9] | TGI [10] | TGI [11] | TGI [12] | TGI [13] | TGI [14] | TGI [15]

COC(=O)C1=C2Nc3ccccc3C23CCN2C(O)C4(CC5CC67CCOC6CCN6CCC8(c9cccc(OC)c9N(C4)C58O)C67)C4OCCC4(C1)C23 (stereo unspecified)
> 100 µM: TGI [1] | TGI [2] | TGI [5] | TGI [6] | TGI [7] | TGI [8] | TGI [9] | TGI [10] | TGI [11] | TGI [12] | TGI [13] | TGI [14]
61.3 µM: TGI [4] | TGI [15]

COc1ccc(-c2c(C(C)=O)c(-c3ccccc3)n(C3OC(COC(C)=O)C(OC(C)=O)C(OC(C)=O)C3OC(C)=O)c(=S)c2C#N)cc1O (stereo unspecified)
72.2 µM: TGI [5]
61.3 µM and > 100 µM: TGI [7]
inactive: GI50 [2] 21 µM and 47.7 µM | GI50 [3] 18.2 µM and 52.8 µM | GI50 [7] 11.3 µM and 47.5 µM | GI50 [11] 32.6 µM and 76.2 µM
57.5 µM and > 100 µM: TGI [2]
> 100 µM: TGI [1] | TGI [3] | TGI [6] | TGI [8] | TGI [9] | TGI [11] | TGI [12] | TGI [14]

CC(Nc1cc(=O)n(C)c(=O)[nH]1)c1ccccc1 (stereo unspecified)
> 100 µM: TGI [1] | TGI [2] | TGI [3] | TGI [4] | TGI [5] | TGI [6] | TGI [8] | TGI [9] | TGI [11] | TGI [12] | TGI [13] | TGI [14] | TGI [15]

COC(=O)C(Cc1ccccc1)NC(=O)C(CCCN=C(N)N)NC(=O)OCc1ccccc1 (stereo unspecified)
> 100 µM: TGI [1] | TGI [2] | TGI [3] | TGI [4] | TGI [5] | TGI [6] | TGI [7] | TGI [8] | TGI [9] | TGI [10] | TGI [11] | TGI [12] | TGI [14] | TGI [15]

CC[C@@]1(O)C(=O)OCc2c1cc1n(c2=O)Cc2c-1nc1ccccc1c2/C=N\NC(=O)C(N)=O
> 90.9 µM: TGI [5]
> 23.7 µM: TGI [3]
13.6 µM: TGI [6]
37 µM: TGI [15]
> 77.8 µM: TGI [13]
> 100 µM: TGI [1] | TGI [2] | TGI [4] | TGI [7] | TGI [8] | TGI [11] | TGI [12] | TGI [14]
